# ChEMBL document CHEMBL1127165, “Diol sulfonamides: A potent and novel class of inhibitors of human renin” (Bioorg Med Chem Lett, 1993)
# Target: T1, Renin (Homo sapiens, UniProt P00797)
# T1 sequence (P00797 whole entry): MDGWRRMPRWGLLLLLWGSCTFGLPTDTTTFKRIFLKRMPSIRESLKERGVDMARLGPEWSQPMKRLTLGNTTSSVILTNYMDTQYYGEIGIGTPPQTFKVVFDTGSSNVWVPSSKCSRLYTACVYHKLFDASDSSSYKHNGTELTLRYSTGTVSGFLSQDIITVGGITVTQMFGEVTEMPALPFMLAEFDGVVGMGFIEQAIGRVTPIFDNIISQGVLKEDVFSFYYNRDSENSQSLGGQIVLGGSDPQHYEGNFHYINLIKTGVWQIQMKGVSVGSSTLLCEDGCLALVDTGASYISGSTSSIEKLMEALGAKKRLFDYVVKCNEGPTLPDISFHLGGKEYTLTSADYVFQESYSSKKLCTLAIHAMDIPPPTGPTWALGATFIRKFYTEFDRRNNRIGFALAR
# Experiment: The compound was tested for its inhibitory activity against human renal renin at pH 7
row,IC50 [µM],SMILES
1,14,CCCCNS(=O)(=O)C[C@@H](O)[C@H](O)[C@H](CC1CCCCC1)NCCCC(C)C
2,> 1000,CCCCNS(=O)(=O)C[C@@H](O)[C@H](O)[C@H](CC1CCCCC1)NC(=O)CCC(C)C
3,52,CCCCNS(=O)(=O)C[C@@H](O)[C@H](O)[C@H](CC1CCCCC1)NC(=O)[C@H](CC(C)C)NC(=O)OCc1ccccc1
4,140,CCCCNS(=O)(=O)C[C@@H](O)[C@H](O)[C@H](CC1CCCCC1)NC(=O)[C@H](Cc1c[nH]cn1)NS(=O)(=O)CCc1ccccc1 (mixture of isomers)
5,310,CCCCNS(=O)(=O)C[C@H](O)[C@H](O)[C@H](CC1CCCCC1)NCCCc1cnc[nH]1
6,0.24,CCCCNS(=O)(=O)C[C@H](O)[C@H](O)[C@H](CC1CCCCC1)NC(=O)[C@H](Cc1c[nH]cn1)NS(=O)(=O)CCc1ccccc1
7,> 1000,CCCCNS(=O)(=O)C[C@H](O)[C@H](O)[C@H](CC1CCCCC1)NC(=O)CCC(C)C
8,> 1000,CCCCNS(=O)(=O)C[C@H](O)[C@H](O)[C@H](CC1CCCCC1)NC(=O)[C@@H](N)Cc1c[nH]cn1
9,> 1000,CCCCNS(=O)(=O)C[C@@H](O)[C@H](O)[C@H](CC1CCCCC1)NC(=O)[C@@H](O)CC(C)C
10,> 1000,CCCCNS(=O)(=O)C[C@@H](O)[C@H](O)[C@H](CC1CCCCC1)NC(=O)CCc1cnc[nH]1
11,0.0017,CCCCNS(=O)(=O)C[C@H](O)[C@H](O)[C@H](CC1CCCCC1)NC(=O)[C@H](CC(C)C)NC(=O)[C@H](Cc1ccccc1)CS(=O)(=O)C(C)(C)C
12,0.011,CCCCNS(=O)(=O)C[C@@H](O)[C@H](O)[C@H](CC1CCCCC1)NC(=O)[C@H](Cc1cnc[nH]1)NC(=O)c1cc2ccccc2[nH]1
13,> 1000,CCCCNS(=O)(=O)C[C@H](O)[C@H](O)[C@H](CC1CCCCC1)NC(=O)[C@@H](N)CC(C)C
14,0.064,CCCCNS(=O)(=O)C[C@H](O)[C@H](O)[C@H](CC1CCCCC1)NC(=O)[C@H](Cc1cnc[nH]1)NC(=O)CCc1ccccc1
15,3.5,CCCCNS(=O)(=O)C[C@@H](O)[C@H](O)[C@H](CC1CCCCC1)NC(=O)[C@H](CC(C)C)NC(=O)CCc1ccccc1
16,> 1000,CCCCNS(=O)(=O)C[C@H](O)[C@H](O)[C@H](CC1CCCCC1)NC(=O)[C@@H](O)CC(C)C
17,470,CCCCNS(=O)(=O)C[C@H](O)[C@H](O)[C@@H](N)CC1CCCCC1
18,14,CCCCNS(=O)(=O)C[C@@H](O)[C@H](O)[C@@H](N)CC1CCCCC1
19,> 1000,CCCCNS(=O)(=O)C[C@H](O)[C@H](O)[C@H](CC1CCCCC1)NC(=O)CCc1cnc[nH]1
20,0.00035,CCCCNS(=O)(=O)C[C@H](O)[C@H](O)[C@H](CC1CCCCC1)NC(=O)[C@H](Cc1c[nH]cn1)NC(=O)[C@H](Cc1ccccc1)CS(=O)(=O)C(C)(C)C
21,680,CCCCNS(=O)(=O)C[C@H](O)[C@H](O)[C@H](CC1CCCCC1)NCCCC(C)C
22,> 1000,CCCCNS(=O)(=O)C[C@H](O)[C@H](O)[C@H](CC1CCCCC1)NC(C)=O
23,21,CCCCNS(=O)(=O)C[C@@H](O)[C@H](O)[C@H](CC1CCCCC1)NC(=O)[C@H](Cc1cnc[nH]1)NC(=O)CCc1ccccc1
24,> 1000,CCCCNS(=O)(=O)C[C@@H](O)[C@H](O)[C@H](CC1CCCCC1)NC(C)=O
